In ChEMBL document CHEMBL3045315, “Effect of ring A and ring B substitution on the cytotoxic potential of pyrazole tethered chalcones” (Med Chem Res, 2012):

Columns and labels:
Format in all cases: functional, cell-based
[1] = system: HEp-2; assay: Cytotoxicity against Homo sapiens (human) Hep2 cells after 48 hr by SRB assay; conditions: HEp-2, 48 h
[2] = system: IMR-32; assay: Cytotoxicity against Homo sapiens (human) IMR32 cells after 48 hr by SRB assay; conditions: IMR-32, 48 h
[3] = system: OVCAR; assay: Cytotoxicity against Homo sapiens (human) OVCAR cells after 48 hr by SRB assay
[4] = system: PC-3; assay: Cytotoxicity against Homo sapiens (human) PC3 cells after 48 hr by SRB assay; conditions: PC-3, 48 h

Row | SMILES | IC50 [1] | IC50 [2] | IC50 [3] | IC50 [4]
1 | COc1ccc(C2CC(c3ccccc3)=NN2C(C)=O)cc1OC (stereo not given) | 7.85 µM | 4.49 µM | 5.56 µM | 6.78 µM
2 | CC(=O)N1N=C(c2cccc([N+](=O)[O-])c2)CC1c1ccccc1 (stereo not given) | 8.93 µM | 7.89 µM | 9.92 µM | 8.71 µM
3 | CC(=O)N1N=C(c2ccco2)CC1c1ccccc1 (stereo not given) | 32.1 µM | 29.1 µM | 31.3 µM | 21.3 µM
4 | CC(=O)N1N=C(c2cccc([N+](=O)[O-])c2)CC1c1ccc2c(c1)OCO2 (stereo not given) | 7.65 µM | 7.89 µM | 9.87 µM | 8.21 µM
5 | COc1cc(C2CC(c3ccc(Br)cc3)=NN2C(C)=O)cc(OC)c1OC (stereo not given) | 4.53 µM | 3.13 µM | 4.78 µM | 3.45 µM
6 | COc1ccc(C2CC(c3ccc4ccccc4c3)=NN2C(C)=O)cc1OC (stereo not given) | 1.01 µM | 1.59 µM | 2.45 µM | 1.98 µM
7 | CC(=O)N1N=C(c2ccco2)CC1c1ccc(Br)cc1 (stereo not given) | 51.2 µM | 47.8 µM | 18.9 µM | 42.1 µM
8 | CC(=O)N1N=C(c2ccc3ccccc3c2)CC1c1ccccc1[N+](=O)[O-] (stereo not given) | 3.63 µM | 3.36 µM | 3.48 µM | 3.01 µM
9 | CC(=O)N1N=C(c2ccc3ccccc3c2)CC1c1cccc(Cl)c1Cl (stereo not given) | 12.5 µM | 16.9 µM | 15.1 µM | 17.9 µM
10 | COc1ccc(C2CC(c3cccc([N+](=O)[O-])c3)=NN2C(C)=O)cc1 (stereo not given) | 8.21 µM | 6.65 µM | 8.76 µM | 7.83 µM
11 | CC(=O)N1N=C(c2cccc3ccccc23)CC1c1ccc2ccccc2c1 (stereo not given) | 0.19 µM | 0.27 µM | 0.25 µM | 0.21 µM
12 | CC(=O)N1N=C(c2ccc3ccccc3c2)CC1c1ccccc1 (stereo not given) | 8.4 µM | 10 µM | 21.5 µM | 7.4 µM
13 | CC(=O)N1N=C(c2ccccc2)CC1c1cccc(Cl)c1Cl (stereo not given) | 24 µM | 42.9 µM | 36.8 µM | 31.6 µM
14 | CC(=O)N1N=C(c2ccco2)CC1c1ccc2c(c1)OCO2 (stereo not given) | 20 µM | 12.3 µM | 12.3 µM | 16.7 µM
15 | COc1ccc(C2CC(c3ccc4ccccc4c3)=NN2C(C)=O)cc1 (stereo not given) | 3.23 µM | 4.12 µM | 5.79 µM | 4.53 µM
16 | COc1ccc(OC)c(C2CC(c3cccc4ccccc34)=NN2C(C)=O)c1 (stereo not given) | 1.31 µM | 1.58 µM | 2.65 µM | 1.98 µM
17 | CC(=O)N1N=C(c2ccco2)CC1c1cccc(Cl)c1Cl (stereo not given) | 43.2 µM | 62.2 µM | 81.2 µM | 61.2 µM
18 | CC(=O)N1N=C(c2ccc3ccccc3c2)CC1c1ccc2ccccc2c1 (stereo not given) | 0.17 µM | 0.19 µM | 0.23 µM | 0.2 µM
19 | CC(=O)N1N=C(c2cccc3ccccc23)CC1c1cccc([N+](=O)[O-])c1 (stereo not given) | 4.08 µM | 3.96 µM | 3.65 µM | 3.13 µM
20 | CC(=O)O[C@H]1C(=O)[C@@]2(C)[C@H]([C@H](OC(=O)c3ccccc3)[C@]3(O)C[C@H](OC(=O)[C@H](O)[C@@H](NC(=O)c4ccccc4)c4ccccc4)C(C)=C1C3(C)C)[C@]1(OC(C)=O)CO[C@@H]1C[C@@H]2O [PACLITAXEL] | 0.11 µM | 0.03 µM | 0.06 µM | 0.12 µM
21 | CC(=O)N1N=C(c2cccc3ccccc23)CC1/C=C/c1ccccc1 (stereo not given) | 21.1 µM | 26.7 µM | 24 µM | 21.1 µM
22 | CC(=O)N1N=C(c2ccc(Br)cc2)CC1c1cccc(Cl)c1Cl (stereo not given) | 50 µM | 45.7 µM | 39.8 µM | 38.8 µM
23 | CC(=O)N1N=C(c2ccco2)CC1c1ccccc1[N+](=O)[O-] (stereo not given) | 47.9 µM | 27.9 µM | 28.3 µM | 19 µM
24 | CC(=O)N1N=C(c2cccc3ccccc23)CC1c1ccccc1 (stereo not given) | 11.2 µM | 7.76 µM | 7.82 µM | 8.46 µM
25 | CC(=O)N1N=C(c2ccco2)CC1c1ccc(Cl)cc1 (stereo not given) | 57.4 µM | 38.9 µM | 31.3 µM | 39 µM
26 | COc1ccc(C2CC(c3ccccc3)=NN2C(C)=O)cc1 (stereo not given) | 10.7 µM | 9.73 µM | 13.8 µM | 7.67 µM
27 | CC(=O)N1N=C(c2cccc3ccccc23)CC1c1cccc(Br)c1 (stereo not given) | 9.88 µM | 11.9 µM | 12.3 µM | 12 µM
28 | CC(=O)N1N=C(c2ccc3ccccc3c2)CC1c1cccc([N+](=O)[O-])c1 (stereo not given) | 3.87 µM | 3.28 µM | 3.39 µM | 2.98 µM
29 | COc1ccc(C2CC(c3ccc4ccccc4c3)=NN2C(C)=O)c(OC)c1OC (stereo not given) | 0.59 µM | 0.78 µM | 0.58 µM | 0.61 µM
30 | COc1ccc(C2CC(c3cccc([N+](=O)[O-])c3)=NN2C(C)=O)cc1OC (stereo not given) | 7.81 µM | 6.22 µM | 8.11 µM | 6.78 µM
